For 9 compounds, GI50 and TGI results are on record in PubChem BioAssay (NCI).

Common to all, as to experiment: NCI-60 cell line screen, 48 h
Assay [1] has as its system HL-60(TB) leukemia.
Assay [2] deals with HT29 colon.
Assay [3] concerns IGROV1 ovarian.
The subject of assay [4] is MCF7 breast.
In assay [5] the test system is NCI-H460 lung.
Assay [6] relates to NCI/ADR-RES ovarian.
For assay [7], the system named is OVCAR-4 ovarian.
Assay [8] deals with SW-620 colon.
Assay [9] concerns T-47D breast.
The subject of assay [10] is UACC-62 melanoma.

Each structure is given as a SMILES string.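 Results reflect a 48-hour exposure of cells in 96-well plates to compound at five concentrations. The concentration for 50% growth inhibition is given as GI50. Definition used: TGI = concentration required for complete inhibition of growth.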

For `CCn1c(-c2nonc2N)nc2ccccc21`, the GI50 in assay [1], in [2], in [3], in assay [4], in assay [5] and in assay [6] was above 25 µM throughout. Besides, the GI50 in assay [7], in assay [8], in [9] and in [10] was above 25 µM throughout. The TGI in assay [1], in assay [2], in assay [3], in assay [4], in [5] and in assay [6] was above 25 µM each time. The TGI in assay [7], in assay [8], in assay [9] and in assay [10] was above 25 µM each time.
For `OCCCN=C1CCCCC1`, the TGI in [1], in assay [2], in assay [3], in [4], in assay [5] and in assay [6] was above 100 µM each time. Further, the TGI in [7], in assay [8], in assay [9] and in assay [10] was above 100 µM each time.
For the compound `Clc1ccc2c(NCCNc3nc(N4CCOCC4)nc4ccccc34)ccnc2c1`, the GI50 is 1.09 µM in assay [1]; 1.89 µM in assay [2]; 2.88 µM in assay [3]; 3.82 µM in assay [4]; 2.03 µM in assay [5]; 3.73 µM in assay [6]. In addition, the GI50 in [7] was 2.46 µM; in assay [8], 2.97 µM; in [9], 2.82 µM; in assay [10], 1.94 µM. Also, the TGI in assay [1] turned out to be 3.12 µM; in assay [2], 3.56 µM; in assay [3], 10.2 µM; in [4], 17.2 µM; in [5], 4.16 µM; in assay [6], 15.5 µM. Further, the TGI in assay [7] came out at 6.17 µM; in assay [8] it was 10.8 µM; in assay [9], 8.98 µM; in assay [10] it was 3.75 µM.
`COc1cc(-c2nc(-c3ccccc3)c(-c3ccccc3)[nH]2)cc(OC)c1O`: the GI50 was 31.5 µM in assay [1]; 17.4 µM in assay [2]; 26.9 µM in [3]; 13.2 µM in [4]; 17.3 µM in assay [5]; 24.6 µM in [6]. For the same compound, the GI50 in assay [7] is 17.6 µM; in assay [8], 16.6 µM; in [9], 13.5 µM; in assay [10], 15.2 µM. For the same compound, the TGI is above 100 µM in assay [1]; 35.6 µM in assay [2]; 61.2 µM in [3]; 43.4 µM in assay [4]; 36.3 µM in [5]; 73.8 µM in assay [6]. In addition, the TGI worked out at 56.8 µM in assay [7], 33.1 µM in assay [8], 38.7 µM in assay [9] and 29.6 µM in [10].
As to `COc1ccc2nc3ccccc3c(NCCNCCO)c2c1`, the GI50 in [1] is 0.572 µM; in assay [2], 0.378 µM; in [3] it was 0.54 µM; in assay [4], 0.363 µM; in assay [5], 0.341 µM; in assay [6], 5.04 µM. The GI50 in assay [7] is 0.836 µM; in assay [8], 0.362 µM; in assay [9], 0.673 µM; in assay [10], 1.09 µM. Besides, the TGI is 1.68 µM in assay [1]; 4.33 µM in assay [2]; 3.06 µM in [3]; 7.33 µM in assay [4]; 1.92 µM in [5]; above 89 µM in [6]. The TGI in [7] was found to be 3.26 µM; in assay [8] it was 3.66 µM; in assay [9], 6.71 µM; in assay [10], 2.99 µM.
On to `S=c1ssnc1-c1cc2ccccc2o1`, for which the GI50 in assay [1] was 14 µM; in assay [2], 14.3 µM; in assay [3], 4.09 µM; in assay [4], 9.55 µM; in assay [5], 11 µM; in assay [6], 25.7 µM. Further, the GI50 in [7] was 21.6 µM; in assay [8], 12.7 µM; in assay [9], 21.9 µM; in assay [10] it was 15.5 µM. The TGI in assay [1] was above 100 µM; in assay [2], 29.3 µM; in assay [3] it was 29 µM; in assay [4] it was 32.1 µM; in assay [5] it was 29.5 µM; in [6] it was 90.7 µM. In addition, the TGI in [7] was above 100 µM; in assay [8], 27.6 µM; in assay [9] it was above 100 µM; in assay [10] it was 29.4 µM.
As for `O=C1CCC(c2ccccc2)=NN1c1nc2ccccc2s1`, the TGI in assay [1] is 99.2 µM; in [2], above 100 µM; in assay [3] it was above 100 µM; in assay [4], above 100 µM; in assay [5] it was above 64.4 µM; in assay [6] it was 76.6 µM. For the same compound, the TGI in [7] is above 100 µM; in assay [8], above 100 µM; in [9], 32.7 µM; in assay [10], above 100 µM.
For `Fc1ccccc1CN1COc2c(cc(Cl)c3cccnc23)C1`, the TGI in assay [1] is 10.4 µM; in [2], 20.4 µM; in assay [3], 18.6 µM; in assay [4] it was 13.7 µM; in assay [5], above 100 µM; in [6] it was 0.54 µM. Besides, the TGI turned out to be 4.88 µM in assay [7], 18.4 µM in [8], 18.4 µM in assay [9] and 1.74 µM in assay [10].
As to `CCSC[C@@H]1C[C@](O)(c2ccccc2)[C@@H](c2ccccc2)O1`, the GI50 was 9.84 µM in assay [1]; 69.6 µM in assay [2]; 59.5 µM in assay [3]; 74.6 µM in assay [4]; above 76.1 µM in [5]; 77.8 µM in assay [6]. In addition, the GI50 in [7] was 66.9 µM; in assay [8] it was above 100 µM; in assay [9], 49 µM; in [10], 69.2 µM. The TGI in assay [1] was above 50.7 µM; in assay [2], above 100 µM; in assay [3], above 100 µM; in assay [4] it was above 100 µM; in assay [5] it was above 100 µM; in assay [6], above 100 µM. For the same compound, the TGI in assay [7], in assay [8], in assay [9] and in assay [10] was above 100 µM in each case.
